Results on two compounds are retold here after ChEMBL document CHEMBL1140362, “Novel iron-specific fluorescent probes” (Bioorg Med Chem Lett, 2005).

Structures are written as SMILES. Values joined by “and” are separate entries in the source; they are usually repeats but may differ in a detail not shown here. Equal values may be shown once.

The species entered for data set [1] is Homo sapiens. Briefly: The fluorescent suspension followed by time was estimated in the presence of Diehtylenetriamine-penta acetic acid. The format is functional.
Data set [2] in a line: Permeability parameter across human erythrocyte ghost membrane was determined by using fluorescence intensity of 10 uM in presence of Diethylenetriamine-penta acetic acid (DTPA). The class given is ADME. Conditions: erythrocytes.
Data set [3] in a line: Permeability parameter across human erythrocyte ghost membrane was determined by using fluorescence intensity of 10 uM in absence of Diethylenetriamine-penta acetic acid (DTPA). The format is ADME. To be noted: erythrocytes.
A short description of data set [4]: The fluorescent suspension followed by time was estimated in the absence of Diehtylenetriamine-penta acetic acid. The class given is functional.

`Cc1cc2[nH]c(=O)c3cc(=O)c(O)cn3c2cc1C`: the TIME in data set [1] is 0.00667 h. Further, the Fluorescence in data set [2] is listed as 252 a.u.

`O=C1NCCn2cc(O)c(=O)cc21`: the TIME in data set [1] is 0.0353 h; in data set [4] it was 0.03 h and 0.0786 h. In addition, the Fluorescence in data set [3] is 127 a.u and 65 a.u; in data set [2], 117 a.u.
